Data reported in patent US12186331B2, “Compositions comprising at least one n-acetylated and at least one fucosylated oligosaccharide for use in the promotion of digestive capacity in infants and young children” (SOCIETE DES PRODUITS NESTLE S.A., priority 2017, dated 2025).
“Also recorded” adds a separate entry of the source.

Test system: villi in the ileum of IUGR rats
Test: Villi length in the ileum of young rats with intra-uterine growth retardation (IUGR) fed HMO-supplemented diet
Assay type: in vivo, Sprague-Dawley rats
Conditions: IUGR rat pups, 3 g/kg body weight by gavage d7-d21, 4.5% in diet d22-d57, sacrifice at day 57, compared with IUGR group and other groups
Description: Three groups of time-mated pregnant Sprague-Dawley female rats were bought from Charles River laboratories. One group was submitted to food restriction of 60% during the last 10 days of gestation and their offspring were cross-fostered to normally fed rats. A second group of pregnant females was normally fed and their offspring cross-fostered among the same group of dams. […] Normal-weight offspring born from unrestricted dams and fed a normal non-supplemented diet; • IUGR group (negative control; n=20): IUGR rats being fed a normal diet after birth; • IUGR rats+HMO (test groups): During the experiment, they were reared by their mothers for 21 days and supplemented with HMOs (2FL, LNnT or the Mix of 2FL and LNnT). At weaning, they were fed a diet supplemented with the same HMOs, see details below. […] All rat pups were fed from birth (d=1) up to 57 days (d=57) based on the following protocol: • d1 to d6: all groups of rats were nursed by dam (mothers' milk only); • d7 to d21: all rats were nursed by dam (mothers' milk only). But in the test groups, 3 g/kg body weight of HMO were also administered by gavage: • 3 g/kg body weight of 2FL, for the IUGR/2FL group; • 3 g/kg body weight of LNnT, for the IUGR/LNnT group; • 3 g/kg body weight of a mix of LNnT and 2FL at a 1:2 weight ratio, for the IUGR/HMOs mix group; • […] to […]: all rats were fed a diet as detailed in Table 2 below. Rats were sacrificed at day 57 after a 6-hr fasting period and samples of the small intestine were collected. The length of the villi was measured on a sample of the ileum. One 1-cm sample from the ileum (1 cm cranial from caecum) was collected and flushed with PBS (Sigma D8537). This section was fixed and processed accordingly for histological and morphometric analysis. Two consecutive 4 μm-thick sections of fixed tissue were stained manually with hematoxylin and eosin to determine villus height. […] Ten randomly selected villi were measured in two different segments to determine the mean villi length.

Molecule | mean villi length in the ileum | mean villi length in the ileum (listed as 2-FL)
CC(=O)N[C@H]1[C@H](O[C@H]2[C@@H](O)[C@@H](CO)O[C@@H](O[C@H]3[C@H](O)[C@@H](O)C(O)O[C@@H]3CO)[C@@H]2O)O[C@H](CO)[C@@H](O[C@@H]2O[C@H](CO)[C@H](O)[C@H](O)[C@H]2O)[C@@H]1O (mixture of isomers) [LNnT, lacto-N-neotetraose] | neither 2FL, nor LNnT achieved a statistically significant effect when used alone; also recorded: no significant difference with the IUGR group | 
2′-fucosyllactose [2FL] | neither 2FL, nor LNnT achieved a statistically significant effect when used alone | no significant difference with the IUGR group
